Source: patent publication US20080234304A1, “N3-Pyridyl-Thiamine And Its Use In Cancer Treatments” (AVEO PHARMACEUTICALS, INC., priority 2004, published 2008)
“Also recorded” adds a separate entry of the source.

Legend:
[1] = overall animal weight and major organ weight of treated mice; type: in vivo, mouse; settings: 200 mg/kg/day
Protocol: (§1) A mouse xenograft model was used to evaluate the efficacy of N3PT in modulating tumor growth. Cancer cells (HCT-116 Luc+, comprising a stably transfected luciferase gene) were injected subcutaneously (10^6 cells) into Balb C nude mice on both flanks on day 7 prior to treatment. Tumors were allowed to grow to palpable size from test day 0, defined as the start of a treatment regime. N3PT was injected ip (intraperitoneally) at a given regimen (e.g., 200 mg/kg/day) and tumor size monitored by luminance intensity from day 0-7, caliper measurement after day 7, and by weight at the end of study, after the animals were sacrificed. See, e.g., Wang and El-Deiry, Cancer Biol Ther. 2(2):196-202 (2003); Ray et al., Cancer Res. 63(6):1160-5 (2003); see also, e.g., U.S. Pat. Nos. 6,416,960; 6,596,257; and 6,217,847.

transketolase [2] = target: T1, transketolase (Mus musculus, UniProt P40142); assay: transketolase activity in blood and tissues of N3PT-treated mice; type: in vivo
T1 construct: from tissue; host or cells: whole blood, spleen, brain and other tissues of Balb C nude mice; also xenograft tumours
T1 sequence (P40142 1-623): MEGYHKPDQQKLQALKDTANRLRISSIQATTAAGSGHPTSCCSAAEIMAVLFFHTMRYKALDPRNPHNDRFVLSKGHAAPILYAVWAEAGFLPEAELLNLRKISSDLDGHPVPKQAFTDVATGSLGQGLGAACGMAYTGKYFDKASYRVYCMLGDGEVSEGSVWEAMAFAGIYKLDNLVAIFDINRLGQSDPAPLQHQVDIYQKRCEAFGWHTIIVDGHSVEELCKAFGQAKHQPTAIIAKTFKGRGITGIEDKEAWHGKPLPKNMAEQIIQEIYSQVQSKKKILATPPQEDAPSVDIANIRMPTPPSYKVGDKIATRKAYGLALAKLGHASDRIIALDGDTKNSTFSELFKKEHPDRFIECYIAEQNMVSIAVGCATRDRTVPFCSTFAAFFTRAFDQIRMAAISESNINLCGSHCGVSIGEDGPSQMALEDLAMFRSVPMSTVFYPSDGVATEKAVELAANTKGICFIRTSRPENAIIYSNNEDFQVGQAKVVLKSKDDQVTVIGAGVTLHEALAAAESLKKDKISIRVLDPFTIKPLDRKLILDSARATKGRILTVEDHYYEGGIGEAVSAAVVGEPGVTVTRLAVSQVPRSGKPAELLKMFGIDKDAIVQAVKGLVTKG
Protocol: (§2) […] Blood samples were taken (40 μl whole blood) serially or from sacrificed animals at the end of a study. Tissues, including tumor, brain, heart, kidney, liver, lung, spleen, were taken and flash frozen in liquid nitrogen or on dry ice and stored at −80° C. until assay. Blood was diluted into lysis buffer and dissolved. Tissues were suspended in lysis buffer and homogenized with PowerGen 125 (Fisher Scientific) while being submerged in an ice-water bath.
(§3) Transketolase assays were performed as in Example 2. The lysate was used right away or flash frozen and stored at −80° C. until assay. The protein concentration in the lysate was determined using a Bradford assay (BioRad) with BSA as a standard. The enzymatic velocity was normalized to the total protein concentration for inter-sample comparisons. In order to obtain reliable results across samples, it was important to have similar starting protein concentrations (such as within 30%). This was achieved by weighing the tissue before lysis so that the suspensions contained similar tissue/ml lysis buffer for all samples.

transketolase [3] = assay: as above; type: in vivo, mouse; settings: 200 mg/kg/day, relative to vehicle
Protocol: as §2, §3

K562 = assay: inhibition of proliferation of K562 cells; type: cell-based; settings: K562 CML line
Protocol: The ability of N3PT to inhibit proliferation of these cell lines was then tested. LAMA84 was the most sensitive to N3PT, displaying an IC50 of 0.3 μM. The other cell lines, HCT116 and K562, were less sensitive, displaying an IC50 of approximately 2 μM in both cases. LAMA84 also had the highest TK activity (per cell) among these three cancer lines.

HCT-116 Luc+ tumors = assay: mouse xenograft model, tumor growth; type: in vivo; settings: 200 mg/kg/day, twice daily, ip; Balb C nude mice
Protocol: as §1

[4] = brain penetration after a single dose in mice; type: in vivo, mouse
Protocol: To assess the ability of N3PT to inhibit transketolase in vivo, a single dose of N3PT was administered to Balb C nude mice (ip, 100 mg/kg), and blood and tissue samples were collected over time and enzymatic activities determined. Blood samples were taken (40 μl whole blood) serially or from sacrificed animals at the end of a study. Tissues, including tumor, brain, heart, kidney, liver, lung, spleen, were taken and flash frozen in liquid nitrogen or on dry ice and stored at −80° C. until assay. Blood was diluted into lysis buffer and dissolved. Tissues were suspended in lysis buffer and homogenized with PowerGen 125 (Fisher Scientific) while being submerged in an ice-water bath.

Cc1ccc(C[n+]2csc(CCO)c2C)c(N)n1 [N3PT, 3-[(2-amino-6-methyl-3-pyridinyl)methyl]-5-(2-hydroxyethyl)-4-methyl thiazolium]
overall animal weight ([1]; day 0, 6 and 11): no effect on overall animal weight; also recorded: did not affect | major organ weight (brain, heart, kidney, liver, lung, spleen) ([1]; day 11 post treatment): no effect on major organ weight; also recorded: did not affect | transketolase activity in whole blood (transketolase [2]; 200 mg/kg/day, relative to vehicle): reduced; also recorded: selectively inhibited | sensitivity of spleen transketolase to N3PT on low-thiamine diet (transketolase [2]; diets with 16.5, 5, 1 or 0 mg/kg thiamine, N3PT ip, 12 hours later): enhances the sensitivity to N3PT inhibition of TK in spleen; also recorded: more sensitive to TK inhibition by N3PT | selectivity of transketolase inhibition in vivo versus kGDH and G6PDH (transketolase [2]; single dose 100 mg/kg body weight, mouse, 100 mg/kg): selective inhibitor of transketolase in vivo; also recorded: selectively inhibits transketolase | duration of transketolase inhibition in vivo (transketolase [2]; single dose 100 mg/kg i.p., blood and spleen, 0-120 hr, 100 mg/kg): potent and long-lasting transketolase inhibitor in vivo | transketolase activity in tumors (transketolase [3]): reduced | IC50 (K562): ~2000 nM | growth of explant tumors (HCT-116 Luc+ tumors): inhibits growth of tumors in vivo; also recorded: inhibited the growth of explant tumors | brain penetration [4]: little or no significant brain penetration
